The values that follow come from patent publication US20230265151A1, “GIP/GLP1 CO-AGONIST COMPOUNDS” (priority 2020, published 2023).

Assay type in all cases: cell-based
One experiment addresses T1, hGIPR (Homo sapiens, UniProt P48546).
T1 construct: expressed in transfected cells
T1 sequence (P48546 22-466): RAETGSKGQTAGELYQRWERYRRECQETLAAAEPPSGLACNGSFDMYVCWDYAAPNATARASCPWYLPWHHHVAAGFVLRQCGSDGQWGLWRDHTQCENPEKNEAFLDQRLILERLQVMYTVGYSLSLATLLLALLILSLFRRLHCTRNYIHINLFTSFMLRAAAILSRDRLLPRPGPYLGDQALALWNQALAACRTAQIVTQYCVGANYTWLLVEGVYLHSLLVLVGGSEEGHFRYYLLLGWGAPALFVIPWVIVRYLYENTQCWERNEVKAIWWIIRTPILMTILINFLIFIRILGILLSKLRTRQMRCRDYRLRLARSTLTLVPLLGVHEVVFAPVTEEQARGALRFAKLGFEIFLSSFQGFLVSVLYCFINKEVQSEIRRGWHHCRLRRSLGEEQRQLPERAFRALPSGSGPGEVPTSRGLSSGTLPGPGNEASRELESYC
The experiment is described as follows: Functional cAMP formation (HTRF) in HEK-293 clonal cells expressing hGIPR, 0.1% bovine casein, without or with 1.0% human serum albumin. The conditions noted are these: for EC50: geometric mean. In a few lines: (§1)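 Readings of the HTRF 665/620 nm ratio, which falls as cAMP rises, were converted to nM cAMP using a standard curve after 30 min peptide exposure at 37° C.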

Another experiment has as its target T2, hGCGR (Homo sapiens, UniProt P47871).
T2 construct: expressed in transfected cells
In words: Functional cAMP formation (HTRF) in HEK-293 clonal cells expressing hGCGR, 0.1% bovine casein, without or with 1.0% human serum albumin. Conditions: geometric mean. The essentials:
as §1

In another experiment the target is hGLP-1R (Homo sapiens, UniProt P43220). In words: Functional cAMP formation (HTRF) in HEK-293 clonal cells expressing hGLP-1R, 0.1% bovine casein, without or with 1.0% human serum albumin. The arrangement: expressed in transfected cells. Conditions: for EC50: geometric mean. The essentials: as §1
The mark [1] stands for this setting: hGCGR EC50, nM (SEM, n), cAMP, incubated at 37° C., 0.1% bovine casein (no human serum albumin).
Where [2] appears, read: HEK293, read-out: hGLP-1R Emax, % ± SEM, percent of maximal response to GLP-1(7-36)NH2, 37° C., 0.1% bovine casein, arithmetic mean.
[3] abbreviates: hGLP-1R EC50, nM (SEM, n), cAMP, incubated at 37° C., 0.1% bovine casein (no human serum albumin).
The mark [4] stands for this setting: HEK293, read-out: hGIPR Emax, % ± SEM, 0.1% bovine casein and 1.0% human serum albumin, 37° C., percent of maximal response to GIP(1-42)NH2.
Where [5] appears, read: hGCGR EC50, nM (SEM, n), 0.1% bovine casein and 1.0% human serum albumin, 37° C.

Read-outs that look alike come from different tables or passages of the source. *1 amine or outer side, *2 acyl side, *3 side chain or, on linkers, in order; H or OH if unused. Where a SMILES comes first, the peptide text is derived from it. Side-chain parts run from the residue outwards. [ ]: non-standard residue; d: D form. The star is where a group is joined. Decanoyl(10-(4-HOOC-PhO)) = O=C(O)c1ccc(OCCCCCCCCCC(=O)*)cc1; αMePhe(2-F) = C[C@](N)(Cc1ccccc1F)C(=O)O; γGlu = O=C(O)[C@H](CCC(=O)[*:2])N[*:1]; αMeY = C[C@](N)(Cc1ccc(O)cc1)C(=O)O; 4Pal = N[C@@H](Cc1ccncc1)C(=O)O; αMeL = CC(C)C[C@](C)(N)C(=O)O; Orn = NCCC[C@H](N)C(=O)O; AEEA = NCCOCCOCC(=O)O; Aib = CC(C)(N)C(=O)O Where only a bound is given, the exact number is not on record here.

hGLP-1R, sequence (P43220 24-463): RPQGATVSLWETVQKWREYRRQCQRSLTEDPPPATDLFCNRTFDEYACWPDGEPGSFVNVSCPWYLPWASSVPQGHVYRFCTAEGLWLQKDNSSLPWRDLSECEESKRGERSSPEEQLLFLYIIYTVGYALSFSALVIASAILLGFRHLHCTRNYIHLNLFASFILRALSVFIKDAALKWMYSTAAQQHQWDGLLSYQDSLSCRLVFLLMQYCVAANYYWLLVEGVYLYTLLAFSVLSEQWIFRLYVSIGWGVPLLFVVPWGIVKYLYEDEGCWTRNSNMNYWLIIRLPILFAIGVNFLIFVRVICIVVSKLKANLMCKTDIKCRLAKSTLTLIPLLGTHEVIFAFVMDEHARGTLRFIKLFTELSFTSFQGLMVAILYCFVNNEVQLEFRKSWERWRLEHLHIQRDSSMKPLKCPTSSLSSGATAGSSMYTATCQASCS
T2 sequence (P47871 26-477): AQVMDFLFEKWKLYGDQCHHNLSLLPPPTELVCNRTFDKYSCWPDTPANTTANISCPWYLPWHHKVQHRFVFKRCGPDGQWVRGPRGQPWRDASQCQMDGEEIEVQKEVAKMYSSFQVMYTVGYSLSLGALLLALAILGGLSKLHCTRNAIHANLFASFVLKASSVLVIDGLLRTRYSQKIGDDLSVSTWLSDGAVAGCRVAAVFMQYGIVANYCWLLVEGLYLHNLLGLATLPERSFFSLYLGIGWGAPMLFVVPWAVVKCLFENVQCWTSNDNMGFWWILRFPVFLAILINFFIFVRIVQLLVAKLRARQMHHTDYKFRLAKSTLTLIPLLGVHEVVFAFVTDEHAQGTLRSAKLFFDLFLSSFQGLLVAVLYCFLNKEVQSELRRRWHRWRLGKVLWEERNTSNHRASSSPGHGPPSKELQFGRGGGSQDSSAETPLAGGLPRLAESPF

As to `CC[C@H](C)[C@H](NC(=O)[C@H](CC(C)C)NC(=O)[C@](C)(Cc1ccc(O)cc1)NC(=O)[C@@H](CCC(=O)O)NC(=O)[C@@H](NC(=O)[C@H](Cc1ccccc1)NC(=O)[C@H](CCC(=O)O)NC(=O)C(C)(C)NC(=O)[C@H](CCC(N)=O)NC(=O)[C@H](C)NC(=O)[C@H](CCCCNC(=O)COCCOCCNC(=O)COCCOCCNC(=O)CCCCCCCCCCCCC(=O)O)NC(=O)[C@H](CCCN)NC(=O)[C@H](CC(=O)O)NC(=O)[C@H](CC(C)C)NC(=O)[C@](C)(CC(C)C)NC(=O)[C@@H](NC(=O)[C@H](CO)NC(=O)[C@H](Cc1ccc2ccccc2c1)NC(=O)[C@H](CC(=O)O)NC(=O)[C@H](CO)NC(=O)[C@@H](NC(=O)[C@](C)(Cc1ccccc1F)NC(=O)[C@@H](NC(=O)CNC(=O)[C@H](CCC(=O)O)NC(=O)C(C)(C)NC(=O)[C@@H](N)Cc1ccc(O)cc1)[C@@H](C)O)[C@@H](C)O)[C@@H](C)CC)[C@@H](C)CC)C(=O)N[C@@H](CCCCNC(=O)COCCOCCNC(=O)COCCOCCNC(=O)CCCCCCCCCCCCC(=O)O)C(=O)NCC(=O)NCC(=O)N1CCC[C@H]1C(=O)N[C@@H](CO)C(=O)N[C@@H](CO)C(=O)NCC(=O)N[C@@H](C)C(=O)N1CCC[C@H]1C(=O)N1CCC[C@H]1C(=O)N1CCC[C@H]1C(=O)N[C@@H](CO)C(N)=O` [Example 256], the 50% effective concentration (EC50) on hGIPR (0.1% bovine casein and 1.0% human serum albumin, 37° C., read-out: hGIPR EC50, nM (SEM, n)) is 1.5 nM; at hGIPR (cAMP, 37° C., 0.1% bovine casein (no human serum albumin), read-out: hGIPR EC50, nM (SEM, n)) it was 0.0175 nM; on hGCGR (0.1% bovine casein and 1.0% human serum albumin, 37° C., read-out: hGCGR EC50, nM (SEM, n)), above 9950 nM; on hGCGR (cAMP, 37° C., 0.1% bovine casein (no human serum albumin), read-out: hGCGR EC50, nM (SEM, n)) it was above 9950 nM; at hGLP-1R (cAMP, 37° C., 0.1% bovine casein (no human serum albumin), read-out: hGLP-1R EC50, nM (SEM, n)), 0.249 nM. The maximum response (Emax) was determined as 75.3% at hGIPR (HEK293, 0.1% bovine casein and 1.0% human serum albumin, 37° C., percent of maximal response to GIP(1-42)NH2, read-out: hGIPR Emax, % ± SEM); 97.7% on hGIPR (HEK293, cAMP, 37° C., 0.1% bovine casein, percent of maximal response to GIP(1-42)NH2, arithmetic mean, read-out: hGIPR Emax, % ± SEM); 95.5% on hGLP-1R (HEK293, 0.1% bovine casein and 1.0% human serum albumin, 37° C., percent of maximal response to GLP-1(7-36)NH2, read-out: hGLP-1R Emax, % ± SEM); 95.4% on hGLP-1R (HEK293, cAMP, 37° C., 0.1% bovine casein, percent of maximal response to GLP-1(7-36)NH2, arithmetic mean, read-out: hGLP-1R Emax, % ± SEM).
In the case of `CC[C@H](C)[C@H](NC(=O)[C@H](CC(C)C)NC(=O)[C@](C)(Cc1ccc(O)cc1)NC(=O)[C@H](CCCCNC(=O)COCCOCCNC(=O)COCCOCCNC(=O)CC[C@H](NC(=O)CCCCCCCCCCCCC(=O)O)C(=O)O)NC(=O)[C@@H](NC(=O)[C@H](Cc1ccccc1)NC(=O)[C@H](CCC(=O)O)NC(=O)C(C)(C)NC(=O)[C@H](CCC(N)=O)NC(=O)[C@H](C)NC(=O)[C@H](CCCCNC(=O)COCCOCCNC(=O)COCCOCCNC(=O)CC[C@H](NC(=O)CCCCCCCCCCCCC(=O)O)C(=O)O)NC(=O)[C@H](CCCN)NC(=O)[C@H](CC(=O)O)NC(=O)[C@H](CC(C)C)NC(=O)[C@](C)(CC(C)C)NC(=O)[C@@H](NC(=O)[C@H](CO)NC(=O)[C@@H](NC(=O)[C@H](CC(=O)O)NC(=O)[C@H](CO)NC(=O)[C@@H](NC(=O)[C@](C)(Cc1ccccc1F)NC(=O)[C@@H](NC(=O)CNC(=O)[C@H](CCC(=O)O)NC(=O)C(C)(C)NC(=O)[C@@H](N)Cc1ccc(O)cc1)[C@@H](C)O)[C@@H](C)O)C(C)C)[C@@H](C)CC)[C@@H](C)CC)C(=O)N[C@@H](CCC(=O)O)C(=O)NCC(=O)NCC(=O)N1CCC[C@H]1C(=O)N[C@@H](CO)C(=O)N[C@@H](CO)C(=O)NCC(=O)N[C@@H](C)C(=O)N1CCC[C@H]1C(=O)N1CCC[C@H]1C(=O)N1CCC[C@H]1C(=O)N[C@@H](CO)C(N)=O` [Example 114], the maximal effect (Emax) worked out at 93.8% on hGIPR (HEK293, read-out: hGIPR Emax, % ± SEM, percent of maximal response to GIP(1-42)NH2, 37° C., 0.1% bovine casein, arithmetic mean) and 91.7% at hGLP-1R (setting [2]). Also, the concentration giving a half-maximal response (EC50) is above 9950 nM at hGCGR (setting [1]) and 0.176 nM on hGLP-1R (setting [3]).
On to `CC[C@H](C)[C@H](NC(=O)[C@H](CCCN)NC(=O)[C@H](CC(=O)O)NC(=O)[C@H](CC(C)C)NC(=O)[C@](C)(CC(C)C)NC(=O)[C@@H](NC(=O)C(C)(C)NC(=O)[C@H](Cc1ccncc1)NC(=O)[C@H](CC(=O)O)NC(=O)[C@H](CO)NC(=O)[C@@H](NC(=O)[C@](C)(Cc1ccccc1F)NC(=O)[C@@H](NC(=O)CNC(=O)[C@H](CCC(=O)O)NC(=O)C(C)(C)NC(=O)[C@@H](N)Cc1ccc(O)cc1)[C@@H](C)O)[C@@H](C)O)[C@@H](C)CC)C(=O)N[C@@H](C)C(=O)N[C@@H](CCC(N)=O)C(=O)NC(C)(C)C(=O)N[C@@H](CCCCNC(=O)COCCOCCNC(=O)COCCOCCNC(=O)CC[C@H](NC(=O)CCCCCCCCCOc1ccc(C(=O)O)cc1)C(=O)O)C(=O)N[C@@H](Cc1ccccc1)C(=O)N[C@H](C(=O)N[C@H](CCC(=O)O)C(=O)N[C@@](C)(Cc1ccc(O)cc1)C(=O)N[C@@H](CC(C)C)C(=O)N[C@H](C(=O)N[C@@H](CCC(=O)O)C(=O)NCC(=O)NCC(=O)N1CCC[C@H]1C(=O)N[C@@H](CO)C(=O)N[C@@H](CO)C(=O)NCC(=O)N[C@@H](C)C(=O)N1CCC[C@H]1C(=O)N1CCC[C@H]1C(=O)N1CCC[C@H]1C(=O)N[C@@H](CO)C(=O)N[C@@H](CCCCNC(=O)COCCOCCNC(=O)COCCOCCNC(=O)CC[C@H](NC(=O)CCCCCCCCCOc1ccc(C(=O)O)cc1)C(=O)O)C(N)=O)[C@@H](C)CC)[C@@H](C)CC` [Example 248] (H-Y[Aib]EGT[αMePhe(2-F)]TSD[4Pal][Aib]I[αMeL]LD[Orn]IAQ[Aib]K([AEEA-AEEA-γGlu-Decanoyl(10-(4-HOOC-PhO))])FI[dE][αMeY]LIEGGPSSGAPPPSK([AEEA-AEEA-γGlu-Decanoyl(10-(4-HOOC-PhO))])-NH2; N-terminus assumed), for which the Emax on hGIPR (setting [4]) was 91.8%; on hGLP-1R (setting [2]), 89.1%. Further, the EC50 at hGIPR (hGIPR EC50, nM (SEM, n), cAMP, incubated at 37° C., 0.1% bovine casein (no human serum albumin)) is 0.0176 nM; at hGCGR (setting [5]), above 9950 nM; on hGCGR (setting [1]), above 9950 nM; on hGLP-1R (hGLP-1R EC50, nM (SEM, n), 0.1% bovine casein and 1.0% human serum albumin, 37° C.) it was 56.7 nM; at hGLP-1R (setting [3]), 0.537 nM.
Turning to `CCCC[C@H](NC(=O)[C@H](CC(=O)O)NC(=O)[C@H](CO)NC(=O)[C@@H](NC(=O)[C@](C)(Cc1ccccc1F)NC(=O)[C@@H](NC(=O)CNC(=O)[C@H](CCC(=O)O)NC(=O)C(C)(C)NC(=O)[C@@H](N)Cc1ccc(O)cc1)[C@@H](C)O)[C@@H](C)O)C(=O)N[C@@H](CO)C(=O)N[C@H](C(=O)N[C@@](C)(CC(C)C)C(=O)N[C@@H](CC(C)C)C(=O)N[C@@H](CC(=O)O)C(=O)N[C@@H](CCCN)C(=O)N[C@@H](CCCCNC(=O)COCCOCCNC(=O)COCCOCCNC(=O)CC[C@H](NC(=O)CCCCCCCCCOc1ccc(C(=O)O)cc1)C(=O)O)C(=O)N[C@@H](C)C(=O)N[C@@H](CCC(N)=O)C(=O)NC(C)(C)C(=O)N[C@@H](CCCCNC(=O)COCCOCCNC(=O)COCCOCCNC(=O)CC[C@H](NC(=O)CCCCCCCCCOc1ccc(C(=O)O)cc1)C(=O)O)C(=O)N[C@@H](Cc1ccccc1)C(=O)N[C@H](C(=O)N[C@H](CCC(=O)O)C(=O)N[C@@](C)(Cc1ccc(O)cc1)C(=O)N[C@@H](CC(C)C)C(=O)N[C@H](C(=O)N[C@@H](CCC(=O)O)C(=O)NCC(=O)NCC(=O)N1CCC[C@H]1C(=O)N[C@@H](CO)C(=O)N[C@@H](CO)C(=O)NCC(=O)N[C@@H](C)C(=O)N1CCC[C@H]1C(=O)N1CCC[C@H]1C(=O)N1CCC[C@H]1C(=O)N[C@@H](CO)C(N)=O)[C@@H](C)CC)[C@@H](C)CC)[C@@H](C)CC` [Example 321], the maximum response (Emax) on hGIPR (setting [4]) is 94.5%. The 50% effective concentration (EC50) was 0.0107 nM on hGIPR (hGIPR EC50, nM (SEM, n), cAMP, 37° C., 0.1% bovine casein (no human serum albumin)); above 9950 nM at hGCGR (setting [5]); above 9950 nM on hGCGR (hGCGR EC50, nM (SEM, n), cAMP, 37° C., 0.1% bovine casein (no human serum albumin)); 0.295 nM at hGLP-1R (hGLP-1R EC50, nM (SEM, n), cAMP, 37° C., 0.1% bovine casein (no human serum albumin)).
